From patent EP2692724B1, “CHIRAL 3-HYDROXYPYRID-4-ONE DERIVATIVE, AND SYNTHESIS AND USE THEREOF” (Zhejiang University, priority 2011, dated 2012)
Where a name gives a salt, the structure may show the parent alone.

Tests used:
^59Fe-Ferritin = experiment: Biological effect of iron chelators over 59Fe-Ferritin/Rat (iron excretion ability, oral); type: in vivo; conditions: for Iron Excretion (%): rat model, taken orally (intragastric) 1 h after tail vein injection of 59Fe-Ferritin, test ends after 24 h, n=5; for iron excretion ability compared with CP20: in vivo rat test, administered in equimolar amounts
Experimental: According to methods described by Pippard's research group [Blood 58: 685-692], use ^59Fe to label ferritin in rat liver. Isolate ^59Fe-labelled ferritin by the method described by Bjorklid and Helgeland. In the preparation process, the rats were injected intraperitoneally with iron dextran, and intravenous administration of red blood cells, in order to keep the plasma transferrin saturated. This method ensures that most of ^59Fe (III) is absorbed by the liver, so ^59Fe-ferritin with high specific radioactivity can be obtained.
Performance of one shot intraperitoneal injection of 15mg iron dextran to 350∼400 g rats. After one week, jugular vein cannula is performed and then a 24 h's rest. Then the second day, each rat is given packed red cells (2 mL/100g). After 24 h, each rat is injected via the jugular vein cannula with 200 µCi ^59FeCl solution (Amersham Life Science). ^59FeCl3 (1mCi) is diluted 0.5 mL citrate (50mM, pH 2.5). Each experiment employs 5 rats, total radiation is 1mCi. 24 h after isotopically labeled injection, the livers were removed from rats.
Homogenization of liver is processed in 4 vol. (w/v) 0.25M acetate buffer. The homogenate was heated to 75°C with stirring for 10min. After cooling to 4°C, remove solid protein by centrifugation at 2500 g for 15 min. Treat the supernatant that contains tissue iron protein with half saturated (NH4)2SO4, while cooling in ice water for 30 min. The precipitate obtained by centrifugation at 3500 g at 4°C for 15 min, is dissolved in 0.25M pH=4.8 acetate buffer. Undissolved precipitate is removed through a Pd-10 column (Sephadex®, G-25M, Pharmacia Biotech). The resulting solution is centrifuged at 100,000 g at 4°C for 2 h. The final precipitate is dissolved in 0.05M pH=7.4 phosphate buffer, and stored at 4°C. The purity of ^59Fe-ferritin and normal Ferritin (Sigma Chemical Co.) are compared by electrophoresis. Iron concentration of ferritin is tested by colorimetry [Biochem Mol. Biol Int 35(3): […]].
Starved rat was injected ^59Fe-Ferritin via tail vein, in order to label rat liver cells with ^59Fe. After 1 h, each rat is given an iron chelator via intragastric injection. Blank group is administered with water by lavage. Each rat is placed in a metabolic cage, collect urine and feces. All rats are given free access to food after oral administration 1h later, and are free to drink water during the whole experiment. Test ends after 24 h of the tail vein injection of ^59Fe-Ferritin. All rats are killed by the cervical dislocation, then the liver and gastrointestinal system (including its content and feces) are collected for ^59Fe quantification. Calculation for iron excretion ability of iron chelators with following formula: (1) Iron Excretion(%)=^59Fe Activity(intestinal track & feces)/(^59Fe Activity(intestinal tracks & feces)+ ^59Fe Activity(liver))×100% Table 1 Iron excretion ability of taking chiral 3-hydroxypyridine-4-one orally on rat model (n=5).

mice = experiment: Acute toxicity test in mice (maximum oral dosage); type: in vivo; conditions: suspension of maximum solubility in 0.5% CMC-Na, dose with no fatality
Experimental: Prepare suspension of maximum solubility of each compound with 0.5% CMC-Na. Maximum oral dosage to mice is 0.4 mL/10g. Blank group took the same volume 0.5% CMC-Na solution orally (blank group and test group has 4 mice each, 2 female and 2 male). […] Monitor reaction of animal right after drug administration, including appearance, activities, mental states, appetites, urea/feces and its color, fur, nose, eye, mouth, if there are any abnormal secretions and death situation, give timely autopsy to dead animals. If any obvious pathology of organs is found, perform histopathological inspection. Every inspection should be performed every 30∼60 min in the 1st day, then check once a day, record animal toxicity and death distribution. Table 2. Maximum dosage of a few 3-hydroxypyridin-4-one derivatives to mice.

[1] = reduced by glycosylation of the hydroxyl group at 3' position; cited from earlier work

Molecule | Iron Excretion (%) (^59Fe-Ferritin) | other results
3-Hydroxy-1-((2S)-1-hydroxy-3-methyl pentyl-2-)-2-ethyl pyridine-4(1H)-one hydrochloride [CN436] | 5.8 | 
3-Hydroxy-1-((2S)-1-hydroxy-3-methyl pentyl-2-)-2-methyl pyridine-4(1H)-one hydrochloride [CN336] | 10.8 | 
Cc1c(O)c(=O)ccn1[C@H](CO)C(C)C [CN116, (S)-3-Hydroxy-1-(1-hydroxy-3-methylbutyl-2-)-2-methyl pyridine-4(1H)-one] | 18.7 | iron excretion ability compared with CP20 (^59Fe-Ferritin): several times better than CP20
Cc1c(O)c(=O)ccn1[C@@H](CO)Cc1ccccc1 [CN128, (R)-3-Hydroxy-1-(1-hydroxy-3-benzylpropyl-2-)2-methyl pyridine-4(1H)-one] | 24.8 | iron excretion ability compared with CP20 (^59Fe-Ferritin): several times better than CP20
CCc1c(O)c(=O)ccn1[C@@H](C)CO [CN206, (S)-3-Hydroxy-1-(1-hydroxypropyl-2-)-2-ethylpyridine-4(1H)-one] | 16 | Maximum dosage: Dosage(g/kg) (mice): 3.75 g/kg; Maximum dosage: Mole dosage(mmol/kg) (mice): 19.0 mmol/kg; iron excretion ability compared with CP20 (^59Fe-Ferritin): several times better than CP20
CCc1c(O)c(=O)ccn1[C@@H](CO)Cc1ccccc1 [CN228, (R)-3-Hydroxy-1-(1-hydroxy-3-phenylpropyl-2-)-2-ethyl pyridine-4(1H)-one] | 22.3 | iron excretion ability compared with CP20 (^59Fe-Ferritin): several times better than CP20
Cc1c(O)c(=O)ccn1[C@@H](CO)C(C)C [CN318, (R)-3-Hydroxy-1-(1-hydroxy-3-methylbutyl-2-)-2-methyl pyridine-4(1H)-one hydrochloride] | 8.0 | 
Cc1c(O)c(=O)ccn1[C@H](CO)Cc1ccccc1 [CN326, (S)-3-Hydroxy-1-(1-hydroxy-3-phenylpropyl-2-)-2-methyl pyridine-4(1H)-one hydrochloride] | 12.8 | 
CCc1c(O)c(=O)ccn1[C@H](C)CO [CN408, (R)-3-Hydroxy-1-(1-hydroxy-3-propyl-2-)-2-ethyl pyridine-4(1H)-one hydrochloride] | 10.6 | 
CCc1c(O)c(=O)ccn1[C@H](CO)C(C)C [CN416, (S)-3-Hydroxy-1-(1-hydroxy-3-methylbutyl-2-)-2-ethyl pyridine-4(1H)-one hydrochloride] | 7.9 | 
CCc1c(O)c(=O)ccn1[C@@H](CO)C(C)C [CN418, (R)-3-Hydroxy-1-(1-hydroxy-3-methylbutyl-2-)-2-ethyl pyridine-4(1H)-one hydrochloride] | 10.6 | 
CCc1c(O)c(=O)ccn1[C@H](CO)Cc1ccccc1 [CN426, (S)-3-Hydroxy-1-(1-hydroxy-3-phenylpropyl-2-)-2-ethyl pyridine-4(1H)-one hydrochloride] | 13.1 | 
Cc1c(O)c(=O)ccn1C [CP20, reference compound] | 11.4 | half-life [1]: 2∼3 h; Maximum dosage: Dosage(g/kg) (mice): 1.50 g/kg; Maximum dosage: Mole dosage(mmol/kg) (mice): 10.7 mmol/kg
(R)-3-Hydroxy-1-(1-hydroxy-3-propyl-2-)-2-methyl pyridine-4(1H)-one hydrochloride [CN308] | 6.5 | 
(S)-3-hydroxy-1-(1-hydroxy propyl-2-)-2-methyl pyridine-4(1H)-one hydrochloride [CN306] | 11.9 | 
